Reference: patent US7544666B2, “NAP derivatives” (Industrial Technology Research Institute, priority 2005, dated 2009)
Where a SMILES comes first, the peptide text is derived from it. Bridges are numbered along the chain shown (N, C = ends).

Columns and labels:
[1] = Stability in Hanks' balanced salt solution (HBSS); assay type: physicochemical; settings: 37° C., relative to initial conc. in HBSS = 100.00
Method: (§1) The stability of the NAP derivatives prepared by EXAMPLE 1 was measured with the system of human colon cancer cell, Caco-2 cell. Caco-2 cells (1×10^5 cells) were first seeded into a polycarbonate film on the upper layer of a 12-well Transwell and incubated for 18 to 26 days at 37° C. The TEER of the Caco-2 cell monolayer was measured over 350 Ω×cm^2. The stability of the NAP derivatives in the Hanks' balanced salt solutions (HBSS) was measured by the concentration changes of NAP and the NAP derivatives incubated in the HBSS at 37° C. for 4 hours. The stability of the NAP derivatives in the Caco-2 cell system was measured by the procedure described below. NAP and the NAP derivatives in the HBSS were added into the upper layer of the Caco-2 cell-seeded Transwell. After 4-hour incubation, the concentration of NAP and the NAP derivatives in the upper and lower layers was measured and analyzed in comparison with the initial concentration (500 μM) by reverse HPLC at 210 nm.

Caco-2 cell = experiment: Stability in the Caco-2 cell system; assay type: in vitro ADME, human; settings: 4-hour incubation in Caco-2 Transwell; relative to initial conc. = 100.00 (500 μM)
Method: as §1

Caco-2 cell monolayer = experiment: Permeation to Caco-2 cell monolayer; assay type: in vitro ADME, human; design: unit not given here; settings: 4-hour incubation, initial concentration 500 μM in upper layer
Method: The permeation of NAP and the NAP derivatives was examined using the Caco-2 cell system. Caco-2 cells (1×10^5 cells) were seeded into the polycarbonate film on the upper layer of a 12-well Transwell and incubated at 37° C. for 18 to 26 days. The TEER of the Caco cell monolayer was measured over 350 Ω×cm^2. NAP and the NAP derivatives in the HBSS were added into the upper layer of the Caco-2 cell-seeded Transwell. After 4-hour incubation, the concentration of NAP and the NAP derivatives in the upper and lower layers was measured and analyzed in comparison with the initial concentration (500 μM) by reverse phase HPLC at 210 nm.

Compound	Conc. after 4-hour in HBSS [1]	Conc. after 4-hour in Caco-2 cells (Caco-2 cell)	Conc. at the lover layer (Caco-2 cell monolayer)
CCCCC(=O)N[C@@H](CC(N)=O)C(=O)N[C@@H](C)C(=O)N1CCC[C@H]1C(=O)N[C@H](C(=O)N[C@@H](CO)C(=O)N[C@H](C(=O)N1CCC[C@H]1C(=O)N[C@@H](CCC(N)=O)C(=O)O)[C@@H](C)CC)C(C)C [BMEC-NAP0105, C4H9CO-NAPVSIPQ-OH]	98.36	49.86	–
CC[C@H](C)[C@H](NC(=O)[C@H](CO)NC(=O)[C@@H](NC(=O)[C@@H]1CCCN1C(=O)[C@H](C)NC(=O)[C@H](CC(N)=O)NC(=O)OCC(C)C)C(C)C)C(=O)N1CCC[C@H]1C(=O)N[C@@H](CCC(N)=O)C(N)=O [BMEC-NAP0501, iBu-OCO-NAPVSIPQ-NH2]	100.17	87.00	0.76
CCCCCCCCOC(=O)N[C@@H](CC(N)=O)C(=O)N[C@@H](C)C(=O)N1CCC[C@H]1C(=O)N[C@H](C(=O)N[C@@H](CO)C(=O)N[C@H](C(=O)N1CCC[C@H]1C(=O)N[C@@H](CCC(N)=O)C(N)=O)[C@@H](C)CC)C(C)C [BMEC-NAP0505, nOct-OCO-NAPVSIPQ-NH2]	93.41	76.83	0.65
H-QAPVSIPQ-OH [BMEC-NAP0602, H-QAPVSIPQ-OH]	104.94	21.81	–
H-NAPVSIPAQ-OH [BMEC-NAP0601, H-NAPVSIPAQ-OH]	–	–	0.07
CC[C@H](C)[C@H](NC(=O)[C@H](CO)NC(=O)[C@@H](NC(=O)[C@@H]1CCCN1C(=O)[C@H](C)NC(=O)[C@H](CC(N)=O)NC(=O)c1cccc2ccccc12)C(C)C)C(=O)N1CCC[C@H]1C(=O)N[C@@H](CCC(N)=O)C(=O)O [BMEC-NAP0702, α-Naphthoyl-NAPVSIPQ-OH]	96.55	61.61	0.27
CCCCCCCCC(=O)N[C@@H](CC(N)=O)C(=O)N[C@@H](C)C(=O)N1CCC[C@H]1C(=O)N[C@H](C(=O)N[C@@H](CO)C(=O)N[C@H](C(=O)N1CCC[C@H]1C(=O)N[C@@H](CCC(N)=O)C(=O)O)[C@@H](C)CC)C(C)C [BMEC-NAP0107, C8H17CO-NAPVSIPQ-OH]	98.74	24.21	–
H-QAPVSVPAQ-OH [BMEC-NAP0607, H-QAPVSVPAQ-OH]	97.33	16.54	–
CC[C@H](C)[C@H](NC(=O)[C@H](CO)NC(=O)[C@@H](NC(=O)[C@@H]1CCCN1C(=O)[C@H](C)NC(=O)[C@H](CC(N)=O)NC(=O)c1ccc(-c2ccccc2)cc1)C(C)C)C(=O)N1CCC[C@H]1C(=O)N[C@@H](CCC(N)=O)C(=O)O [BMEC-NAP0703, 4-Phenylbenzoyl-NAPVSIPQ-OH]	95.73	88.79	–
H-NAPVSLPQ-OH [BMEC-NAP0606, H-NAPVSLPQ-OH]	99.42	11.54	–
CC[C@H](C)[C@H](NC(=O)[C@H](CO)NC(=O)[C@@H](NC(=O)[C@@H]1CCCN1C(=O)[C@H](C)NC(=O)[C@H](CC(N)=O)NC(=O)c1ccccc1)C(C)C)C(=O)N1CCC[C@H]1C(=O)N[C@@H](CCC(N)=O)C(N)=O [BMEC-NAP0801, Benzoyl-NAPVSIPQ-NH2]	99.88	92.58	0.33
CC[C@H](C)[C@@H]1NC(=O)[C@H](CO)NC(=O)[C@H](C(C)C)NC(=O)[C@@H]2CCCN2C(=O)[C@H](C)NC(=O)[C@H](CC(N)=O)NC(=O)[C@@H](N)CSSC[C@@H](C(=O)O)NC(=O)[C@H](CCC(N)=O)NC(=O)[C@@H]2CCCN2C1=O [BMEC-NAP0302] (H-CNAPVSIPQC-OH; disulfide 1-10; N-terminus and C-terminus assumed)	–	81.33	1.28
H-NAPISIPQ-OH [BMEC-NAP0604, H-NAPISIPQ-OH]	103.83	23.89	–
CCCCC(CC)COC(=O)N[C@@H](CC(N)=O)C(=O)N[C@@H](C)C(=O)N1CCC[C@H]1C(=O)N[C@H](C(=O)N[C@@H](CO)C(=O)N[C@H](C(=O)N1CCC[C@H]1C(=O)N[C@@H](CCC(N)=O)C(=O)O)[C@@H](C)CC)C(C)C (stereo partly shown) [BMEC-NAP0402, iOct-OCO-NAPVSIPQ-OH]	–	18.92	2.02
H-NAPVSVPQ-OH [BMEC-NAP0605, H-NAPVSVPQ-OH]	104.25	27.76	–
CCCCCCC(=O)N[C@@H](CC(N)=O)C(=O)N[C@@H](C)C(=O)N1CCC[C@H]1C(=O)N[C@H](C(=O)N[C@@H](CO)C(=O)N[C@H](C(=O)N1CCC[C@H]1C(=O)N[C@@H](CCC(N)=O)C(=O)O)[C@@H](C)CC)C(C)C [BMEC-NAP0106, C6H13CO-NAPVSIPQ-OH]	102.05	26.74	–
CCCC(=O)N[C@@H](CC(N)=O)C(=O)N[C@@H](C)C(=O)N1CCC[C@H]1C(=O)N[C@H](C(=O)N[C@@H](CO)C(=O)N[C@H](C(=O)N1CCC[C@H]1C(=O)N[C@@H](CCC(N)=O)C(=O)O)[C@@H](C)CC)C(C)C [BMEC-NAP0101, Butyryl-NAPVSIPQ-OH]	97.76	56.02	–
CCCCCCCCCCCCOC(=O)N[C@@H](CC(N)=O)C(=O)N[C@@H](C)C(=O)N1CCC[C@H]1C(=O)N[C@H](C(=O)N[C@@H](CO)C(=O)N[C@H](C(=O)N1CCC[C@H]1C(=O)N[C@@H](CCC(N)=O)C(=O)O)[C@@H](C)CC)C(C)C [BMEC-NAP0406, nDod-OCO-NAPVSIPQ-OH]	130.04	97.75	–
CCCCC(CC)COC(=O)N[C@@H](CC(N)=O)C(=O)N[C@@H](C)C(=O)N1CCC[C@H]1C(=O)N[C@H](C(=O)N[C@@H](CO)C(=O)N[C@H](C(=O)N1CCC[C@H]1C(=O)N[C@@H](CCC(N)=O)C(N)=O)[C@@H](C)CC)C(C)C (stereo partly shown) [BMEC-NAP0502, iOct-OCO-NAPVSIPQ-NH2]	–	82.37	1.39
H-NAPISIPAN-OH [BMEC-NAP0608, H-NAPISIPAN-OH]	110.89	30.58	–
CCCCOC(=O)N[C@@H](CC(N)=O)C(=O)N[C@@H](C)C(=O)N1CCC[C@H]1C(=O)N[C@H](C(=O)N[C@@H](CO)C(=O)N[C@H](C(=O)N1CCC[C@H]1C(=O)N[C@@H](CCC(N)=O)C(=O)O)[C@@H](C)CC)C(C)C [BMEC-NAP0403, nBu-OCO-NAPVSIPQ-OH]	98.49	29.05	–
CC[C@H](C)[C@H](NC(=O)[C@H](CO)NC(=O)[C@@H](NC(=O)[C@@H]1CCCN1C(=O)[C@H](C)NC(=O)[C@H](CC(N)=O)NC(=O)c1ccc2c(c1)C(=O)OC21c2ccc(O)cc2Oc2cc(O)ccc21)C(C)C)C(=O)N1CCC[C@H]1C(=O)N[C@@H](CCC(N)=O)C(=O)O [BMEC-NAP9901, 5(6)FAM-NAPVSIPQ-OH]	–	81.63	0.77
CCCCCCCCOC(=O)N[C@@H](CC(N)=O)C(=O)N[C@@H](C)C(=O)N1CCC[C@H]1C(=O)N[C@H](C(=O)N[C@@H](CO)C(=O)N[C@H](C(=O)N1CCC[C@H]1C(=O)N[C@@H](CCC(N)=O)C(=O)O)[C@@H](C)CC)C(C)C [BMEC-NAP0405, nOct-OCO-NAPVSIPQ-OH]	99.66	17.11	–
CC[C@H](C)[C@H](NC(=O)[C@H](COP(=O)(O)O)NC(=O)[C@@H](NC(=O)[C@@H]1CCCN1C(=O)[C@H](C)NC(=O)[C@@H](N)CC(N)=O)C(C)C)C(=O)N1CCC[C@H]1C(=O)N[C@@H](CCC(N)=O)C(=O)O [BMEC-NAP9902, NH2-NAPVS(OPO3H2)IPQ-OH]	98.80	94.19	–
CC[C@H](C)[C@H](NC(=O)[C@H](CO)NC(=O)[C@@H](NC(=O)[C@@H]1CCCN1C(=O)[C@H](C)NC(=O)[C@H](CC(N)=O)NC(=O)OCC1c2ccccc2-c2ccccc21)C(C)C)C(=O)N1CCC[C@H]1C(=O)N[C@@H](CCC(N)=O)C(N)=O [BMEC-NAP0806, Fmoc-NAPVSIPQ-NH2]	100.00	76.24	–
Adipyl-NAPVSIPQ-OH [BMEC-NAP0102]	99.95	60.72	–
